Assay results reported in patent EP1984353B1, “AURORA KINASE MODULATORS AND METHOD OF USE” (Amgen, Inc, priority 2006, dated 2007).
pIC50: −log10 of the molar value. Read-outs that look alike come from different tables or passages of the source.

How the values were obtained:
[1] = target: T1, AuroraB (Homo sapiens, UniProt Q96GD4); assay: AuroraB Homogeneous Time Resolved Fluorescent (HTRF) kinase assay; type: biochemical; conditions: average, read-out: AurB_ _IC50_IP (Avg)
T1 construct: 20 µL of AuroraB FL His; His
T1 sequence (Q96GD4 whole entry): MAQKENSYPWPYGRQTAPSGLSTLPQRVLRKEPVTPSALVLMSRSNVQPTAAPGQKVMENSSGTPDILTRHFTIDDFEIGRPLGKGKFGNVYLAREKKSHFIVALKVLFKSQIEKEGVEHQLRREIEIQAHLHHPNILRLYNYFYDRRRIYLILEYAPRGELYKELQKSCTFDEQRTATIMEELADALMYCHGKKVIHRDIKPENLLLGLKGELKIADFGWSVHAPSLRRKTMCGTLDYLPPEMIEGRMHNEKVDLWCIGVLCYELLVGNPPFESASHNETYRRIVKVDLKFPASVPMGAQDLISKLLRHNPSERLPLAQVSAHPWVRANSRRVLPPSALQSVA
Experimental: AuroraB-Homogeneous Time Resolved Fluorescent (HTRF) Kinase Assay:
The AuroraB HTRF assay begins with AuroraB in the presence of ATP phosphorylating the biotinylated peptide Histone H3. The reaction incubates for about 90 min. the reaction is quentched by addition of detection reagents, which stop the reaction by diluting out the enzyme and chelating the metals due to the presence of EDTA. After addition, the assay is incubated for about 60 min to allow detection reagents to equilibrate.
The AuroraB HTRF assay comprises 1 µL of compound in 100% DMSO, 20 µL of ATP and biotinylated Histone H3, and 20 µL of AuroraB FL His for a final volume of 41 µL. The final concentration of Histone H3 is 0.1 µM. The final concentration of ATP is 23 µM (Km(app) = 23 µM+/-2.6) and the final concentration of AuroraB is 400 pM. Buffer conditions are as follows: 50mM HEPES pH 7.5, 5mM NaCl, 0.5mM MgCl, 0.5mM MnCl, 2mM DTT, 0.05% BSA.
(§1) The assay is quenched and stopped with 160 µL of detection reagent. Detection reagents are as follows: Buffer made of 50mM Tris, pH 7.5, 100mM NaCl, 3mM EDTA, 0.05% BSA, 0.1% Tween20. Added to this buffer prior to reading is Steptavidin allophycocyanin (SA-APC) at a final conc in the assay of 0.001 mg/mL, and europilated anti-phosphoHistoneH3 Ab (Eu-anti-HisH3) at a final conc of 0.064 nM.
The assay plate is read in either a Discovery or a RubyStar. The eu-anti-HisH3 is excited at 320 nm and emits at 615 nm to excite the SA-APC which in turn emits at 655 nm. The ratio of SA-APC at 655 nm (excited due to close proximity to the Eu-anti-HisH3 because of phosphorylation of the peptide) to free Eu-anti-HisH3 at 615 nm will give substrate phosphorylation.

[2] = target: T2, AuroraA-TPX2 (Homo sapiens, UniProt O14965); assay: AuroraA-TPX2 Homogeneous Time Resolved Fluorescent (HTRF) kinase assay; type: biochemical; conditions: average, read-out: AurA/TP X2_ IC50_IP (Avg)
T2 construct: 20 µL of AuroraA-TPX2 KD GST; GST
T2 sequence (O14965 133-383 limits assumed): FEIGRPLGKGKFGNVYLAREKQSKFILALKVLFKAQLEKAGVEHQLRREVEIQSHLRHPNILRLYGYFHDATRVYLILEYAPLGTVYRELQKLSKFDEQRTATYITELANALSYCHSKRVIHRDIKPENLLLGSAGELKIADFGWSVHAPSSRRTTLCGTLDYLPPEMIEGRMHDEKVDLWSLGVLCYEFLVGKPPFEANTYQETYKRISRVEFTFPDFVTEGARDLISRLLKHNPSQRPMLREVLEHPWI
T2 sequence (Q9ULW0 1-43 partner limits assumed): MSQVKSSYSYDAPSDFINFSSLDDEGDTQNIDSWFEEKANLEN
Experimental: AuroraA-TPX2-Homogeneous Time Resolved Fluorescent (HTRF) Kinase Assay:
The Aurora-A HTRF assay begins with Aurora-A in the presence of ATP phosphorylating the biotinylated peptide PLK. The reaction incubates for about 120 min. Detection reagents are added to quench the reaction. These agents stop the reaction by diluting out the enzyme and chelating the metals due to the presence of EDTA. After addition, the assay is incubated overnight to allow the detection reagents to equilibrate.
The final concentration of PLK is about 1 µM. […] Buffer conditions are as follows: 60mM HEPES pH 7.5, 25mM NaCl, 10mM MgCl, 2mM DTT, 0.05% BSA.
as §1, with “µL,” for “µL”, “0.0005” for “0.001”, “anti-phosphoPLK” for “anti-phosphoHistoneH3”, “(Eu-anti-PLK)” for “(Eu-anti-HisH3)”, “0.02” for “0.064”
The assay plate is read in either a Discovery or a RubyStar. The eu-anti-PLK is excited at 320 nm and emits at 615 nm to excite the SA-APC which in turn emits at 655 nm.

[3] = given as numbers, unit inferred

Row | Structure (SMILES) | pIC50 ([1]; given as class symbols) | pIC50 ([2]; given as class symbols) | pIC50 [1, 3] | pIC50 [2, 3]
1 | Cc1cccc(-c2nnc(Nc3ccc(Oc4ncccc4-c4ccnc(NCCCN5CCCCC5)n4)cc3)c3ccccc23)n1 [compound 276, 4-(6-methyl-2-pyridinyl)-N-(4-((3-(2-((3-(1-piperidinyl)propyl)amino)-4-pyrimidinyl)-2-pyridinyl)oxy)phenyl)-1-phthalazinamine] | ≥ 7.00 | 6.30 to 7.00 |  | 
2 | Cc1cccc(-c2nnc(Nc3ccc(Oc4ncccc4-c4ccnc(NCCCN5CCNCC5)n4)cc3)c3ccccc23)n1 [compound 277, 4-(6-methyl-2-pyridinyl)-N-(4-((3-(2-((3-(1-piperazinyl)propyl)amino)-4-pyrimidinyl)-2-pyridinyl)oxy)phenyl)-1-phthalazinamine] |  |  | 8.57 | 6.90
3 | c1ccc(-c2nnc(Nc3ccc(Oc4ncccc4-c4ccnc5c4CCCN5)cc3)c3ccccc23)cc1 [compound 283, 4-phenyl-N-(4-((3-(5,6,7,8-tetrahydro-1,8-naphthyridin-4-yl)-2-pyridinyl)oxy)phenyl)-1-phthalazinamine] | 6.30 to 7.00 | 5.60 to 6.30 |  | 
4 | Cc1csc(-c2nnc(Nc3ccc(Oc4ncccc4-c4ccnc5c4CCCN5)cc3)c3ccccc23)n1 [compound 284, 4-(4-methyl-1,3-thiazol-2-yl)-N-(4-((3-(5,6,7,8-tetrahydro-1,8-naphthyridin-4-yl)-2-pyridinyl)oxy)phenyl)-1-phthalazinamine] |  |  | 6.72 | 6.78
5 | Cc1cc(-c2ccccc2)nnc1Nc1ccc(Oc2ncccc2-c2ccnc3c2CCCN3)cc1 [compound 285, 4-methyl-6-phenyl-N-(4-((3-(5,6,7,8-tetrahydro-1,8-naphthyridin-4-yl)-2-pyridinyl)oxy)phenyl)-3-pyridazinamine] | 6.30 to 7.00 | 5.60 to 6.30 |  | 
6 | c1ccc(-c2nnc(Nc3ccc(Oc4ncccc4-c4ccnc5c4CCN5)cc3)c3ccccc23)cc1 [compound 287, N-(4-((3-(2,3-dihydro-1H-pyrrolo[2,3-b]pyridin-4-yl)-2-pyridinyl)oxy)phenyl)-4-phenyl-1-phthalazinamine] |  |  | 7.99 | 7.08
7 | Cc1csc(-c2nnc(Nc3ccc(Oc4ncccc4-c4ccnc5c4CCN5)cc3)c3ccccc23)n1 [compound 288, N-(4-((3-(2,3-dihydro-1H-pyrrolo[2,3-b]pyridin-4-yl)-2-pyridinyl)oxy)phenyl)-4-(4-methyl-1,3-thiazol-2-yl)-1-phthalazinamine] | 5.60 to 6.30 | ≥ 7.00 |  | 
8 | Cc1ccc(-c2nnc(Nc3ccc(Oc4ncccc4-c4ccnc(N)n4)nc3)c3ccccc23)nc1 [compound 289, N-(6-((3-(2-amino-4-pyrimidinyl)-2-pyridinyl)oxy)-3-pyridinyl)-4-(5-methyl-2-pyridinyl)-1-phthalazinamine] |  |  | 8.72 | 7.62
9 | CN1CCN(CCCNc2ncc(F)c(-c3cccnc3Oc3ccc(Nc4nnc(-c5ccccc5)c5ccccc45)cc3)n2)CC1 [compound 291, N-(4-((3-(5-fluoro-2-((3-(4-methyl-1-piperazinyl)propyl)amino)-4-pyrimidinyl)-2-pyridinyl)oxy)phenyl)-4-phenyl-1-phthalazinamine] |  |  | 8.52 | 7.80
10 | COc1cccc(-c2nnc(Nc3ccc(Oc4ncccc4-c4ccnc(N)n4)cc3)c3ccccc23)n1 [compound 292, N-(4-((3-(2-amino-4-pyrimidinyl)-2-pyridinyl)oxy)phenyl)-4-(6-(methyloxy)-2-pyridinyl)-1-phthalazinamine] | ≥ 7.00 | ≥ 7.00 |  | 
11 | COc1cccc(-c2nnc(Nc3ccc(Oc4ncccc4-c4ccnc(N)n4)nc3)c3ccccc23)n1 [compound 293, N-(6-((3-(2-amino-4-pyrimidinyl)-2-pyridinyl)oxy)-3-pyridinyl)-4-(6-(methyloxy)-2-pyridinyl)-1-phthalazinamine] | ≥ 7.00 | ≥ 7.00 |  | 
12 | c1ccc(-c2nnc(Nc3ccc(Oc4ncccc4-c4ccnc(NCCCN5CCC5)n4)cc3)c3ccccc23)cc1 [compound 295, N-(4-((3-(2-((3-(1-azetidinyl)propyl)amino)-4-pyrimidinyl)-2-pyridinyl)oxy)phenyl)-4-phenyl-1-phthalazinamine] | ≥ 7.00 | 6.30 to 7.00 |  | 
13 | CC(=O)OCc1cccc(-c2nnc(Nc3ccc(Oc4ncccc4-c4ccnc(N)n4)cc3)c3ccccc23)n1 [compound 296, (6-(4-((4-((3-(2-amino-4-pyrimidinyl)-2-pyridinyl)oxy)phenyl)amino)-1-phthalazinyl)-2-pyridinyl)methyl acetate] | ≥ 7.00 | ≥ 7.00 |  | 
14 | Nc1nccc(-c2cccnc2Oc2ccc(Nc3nnc(-c4cccc(CO)n4)c4ccccc34)cc2)n1 [compound 297, (6-(4-((4-((3-(2-amino-4-pyrimidinyl)-2-pyridinyl)oxy)phenyl)amino)-1-phthalazinyl)-2-pyridinyl)methanol] | ≥ 7.00 | ≥ 7.00 |  | 
15 | ONc1nccc(-c2cccnc2Oc2ccc(Nc3nnc(-c4ccccc4)c4ccccc34)cc2)n1 [compound 310, N-(4-((3-(2-(hydroxyamino)-4-pyrimidinyl)-2-pyridinyl)oxy)phenyl)-4-phenyl-1-phthalazinamine] | ≥ 7.00 | ≥ 7.00 |  | 
16 | c1ccc(-c2nnc(Nc3ncc(Oc4ncccc4-c4ccncc4)cn3)c3ccccc23)cc1 [compound 311, N-(5-(3,4'-bipyridin-2-yloxy)-2-pyrimidinyl)-4-phenyl-1-phthalazinamine] | 5.60 to 6.30 | 5.60 to 6.30 |  | 
17 | Cc1csc(-c2nnc(Nc3ccc(Oc4ncccc4-c4c[nH]nc4N)c(F)c3)c3ccccc23)n1 [compound 312, N-(4-((3-(3-amino-1H-pyrazol-4-yl)-2-pyridinyl)oxy)-3-fluorophenyl)-4-(4-methyl-1,3-thiazol-2-yl)-1-phthalazinamine] | ≥ 7.00 | ≥ 7.00 |  | 
18 | Nc1nccc(-c2cccnc2Oc2ccc(Nc3nnc(-c4ccccc4)c4ccsc34)cn2)n1 [compound 313, N-(6-((3-(2-amino-4-pyrimidinyl)-2-pyridinyl)oxy)-3-pyridinyl)-4-phenylthieno[2,3-d]pyridazin-7-amine] | ≥ 7.00 | ≥ 7.00 |  | 
19 | Nc1n[nH]cc1-c1cccnc1Oc1ccc(Nc2nnc(-c3ccccc3)c3ccccc23)cc1F [compound 314, N-(4-((3-(3-amino-1H-pyrazol-4-yl)-2-pyridinyl)oxy)-3-fluorophenyl)-4-phenyl-1-phthalazinamine] |  |  | 8.62 | 8.35
20 | Nc1nccc(-c2cccnc2Oc2ccc(Nc3nnc(-c4ccc(Cl)cc4)c4ccccc34)cn2)n1 [compound 315, N-(6-((3-(2-amino-4-pyrimidinyl)-2-pyridinyl)oxy)-3-pyridinyl)-4-(4-chlorophenyl)-1-phthalazinamine] | ≥ 7.00 | ≥ 7.00 |  | 
21 | CS(=O)(=O)c1cccc(-c2nnc(Nc3ccc(Oc4ncccc4-c4ccnc(N)n4)cc3)c3ccccc23)c1 [compound 316, N-(4-((3-(2-amino-4-pyrimidinyl)-2-pyridinyl)oxy)phenyl)-4-(3-(methylsulfonyl)phenyl)-1-phthalazinamine] | ≥ 7.00 | ≥ 7.00 |  | 
